Data published in ChEMBL document CHEMBL6083220, “Chemically induced degradation of PRC2 complex by EZH2-Targeted PROTACs via a Ubiquitin-Proteasome pathway” (Bioorg Med Chem Lett, 2024).
Calls of active or inactive are those of the source. The calls are words filed in the database; no cut-off is given here.

Legend:
[1] = Antiproliferative activity against human MINO cells by MTT assay; assay type: functional, cell-based
OCI-Ly7 = experiment: Antiproliferative activity against human OCILY7 cells by MTT assay; assay type: functional, cell-based
MINO [2] = experiment: Downregulation of EZH2 protein expression in human MINO cells at 5 uM incubated for 24 hrs by Western blotting assay; assay type: functional, cell-based
MINO [3] = experiment: Downregulation of SUZ12 protein expression in human MINO cells at 5 uM incubated for 24 hrs by Western blotting assay; assay type: functional, cell-based
MINO [4] = experiment: Downregulation of EED protein expression in human MINO cells at 5 uM incubated for 24 hrs by Western blotting assay; assay type: functional, cell-based
MINO [5] = experiment: Downregulation of RbAp48 protein expression in human MINO cells at 5 uM incubated for 24 hrs by Western blotting assay; assay type: functional, cell-based
MINO [6] = experiment: Downregulation of H3k27me3 protein expression in human MINO cells at 5 uM incubated for 24 hrs by Western blotting assay; assay type: functional, cell-based
[7] = Induction of cell cycle arrest in human MINO cells assessed as G0/G1 phase cells at 5 uM incubated for 24 hrs by propidium iodide staining based flow cytometry assay (reference value: 67.56%); assay type: functional
[8] = Induction of cell cycle arrest in human MINO cells assessed as G2/M phase cells at 5 uM incubated for 24 hrs by propidium iodide staining based flow cytometry assay (reference value: 7.26%); assay type: functional
[9] = Induction of cell cycle arrest in human MINO cells assessed as S phase cells at 5 uM incubated for 24 hrs by propidium iodide staining based flow cytometry assay (reference value: 25.19%); assay type: functional
[10] = Induction of apoptosis in human MINO cells assessed as viable cells at 5 uM incubated for 24 hrs by Annexin V-FITC/PI staining based flow cytometry assay (reference value: 89.93%); assay type: functional; conditions: read-out: Activity
[11] = Induction of apoptosis in human MINO cells assessed as early apoptotic cells at 5 uM incubated for 24 hrs by Annexin V-FITC/PI staining based flow cytometry assay (reference value: 1.04%); assay type: functional
[12] = Induction of apoptosis in human MINO cells assessed as late apoptotic cells at 5 uM incubated for 24 hrs by Annexin V-FITC/PI staining based flow cytometry assay (reference value: 8.29%); assay type: functional
[13] = Induction of apoptosis in human MINO cells assessed as necrotic cells at 5 uM incubated for 24 hrs by Annexin V-FITC/PI staining based flow cytometry assay (reference value: 0.74%); assay type: functional
MINO [14] = experiment: Induction of mitochondrial apoptosis pathway in human MINO cells assessed as upregulation of cytochrome C expression at 5 uM incubated for 24 hrs by Western blotting assay; assay type: functional, cell-based
MINO [15] = experiment: Induction of mitochondrial apoptosis pathway in human MINO cells assessed as upregulation of bax protein expression at 5 uM incubated for 24 hrs by Western blotting assay; assay type: functional, cell-based
MINO [16] = experiment: Induction of mitochondrial apoptosis pathway in human MINO cells assessed as upregulation of cleaved PARP expression at 5 uM incubated for 24 hrs by Western blotting assay; assay type: functional, cell-based
MINO [17] = experiment: Induction of mitochondrial apoptosis pathway in human MINO cells assessed as downregulation of bcl-2 expression at 5 uM incubated for 24 hrs by Western blotting assay; assay type: functional, cell-based
MINO [18] = experiment: Induction of mitochondrial apoptosis pathway in human MINO cells assessed as downregulation of procaspase-3 expression at 5 uM incubated for 24 hrs by Western blotting assay; assay type: functional, cell-based
MINO [19] = experiment: Induction of mitochondrial apoptosis pathway in human MINO cells assessed as downregulation of procaspase-9 expression at 5 uM incubated for 24 hrs by Western blotting assay; assay type: functional, cell-based
[20] = Half-life in ICR mouse at 2 mg/kg, iv; assay type: ADME, organism-based; conditions: in vivo
[21] = Tmax in ICR mouse at 2 mg/kg, iv; assay type: ADME, organism-based; conditions: in vivo
[22] = Cmax in ICR mouse at 2 mg/kg, iv; assay type: ADME, organism-based; conditions: in vivo
[23] = AUC(0 to t) in ICR mouse at 2 mg/kg, iv; assay type: ADME, organism-based; conditions: in vivo
[24] = AUC(0 to infinity) in ICR mouse at 2 mg/kg, iv; assay type: ADME, organism-based; conditions: in vivo
[25] = MRT(0 to t) in ICR mouse at 2 mg/kg, iv; assay type: ADME, organism-based; conditions: in vivo
[26] = MRT(0 to infinity) in ICR mouse at 2 mg/kg, iv; assay type: ADME, organism-based; conditions: in vivo
[27] = Initial plasma concentration in ICR mouse at 2 mg/kg, iv; assay type: ADME, organism-based
[28] = Volume of distribution at steady state in ICR mouse at 2 mg/kg, iv; assay type: ADME, organism-based; conditions: in vivo, read-out: Vdss
[29] = Apparent volume of distribution in ICR mouse at 2 mg/kg, iv; assay type: ADME, organism-based; conditions: in vivo, read-out: Vz
[30] = Clearance in ICR mouse at 2 mg/kg, iv; assay type: ADME, organism-based; conditions: in vivo
[31] = Bioavailability in ICR mouse at 2 mg/kg, iv; assay type: ADME, organism-based; conditions: in vivo
[32] = Half-life in ICR mouse at 10 mg/kg, po; assay type: ADME, organism-based; conditions: in vivo
[33] = Tmax in ICR mouse at 10 mg/kg, po; assay type: ADME, organism-based; conditions: in vivo
[34] = Cmax in ICR mouse at 10 mg/kg, po; assay type: ADME, organism-based; conditions: in vivo
[35] = AUC(0 to t) in ICR mouse at 10 mg/kg, po; assay type: ADME, organism-based; conditions: in vivo
[36] = AUC(0 to infinity) in ICR mouse at 10 mg/kg, po; assay type: ADME, organism-based; conditions: in vivo
[37] = MRT(0 to t) in ICR mouse at 10 mg/kg, po; assay type: ADME, organism-based; conditions: in vivo
[38] = MRT(0 to infinity) in ICR mouse at 10 mg/kg, po; assay type: ADME, organism-based; conditions: in vivo
[39] = target: Histone-lysine N-methyltransferase EZH2 (Homo sapiens) (UniProt Q15910); experiment: Binding affinity to EZH2 in human MINO cells assessed as increase in thermal stability at 5 uM at 5 to 10 degreeC incubated for 24 hrs by CETSA; assay type: cell-based
[40] = target: Polycomb protein EED (Homo sapiens) (UniProt O75530); experiment: Binding affinity to EED in human MINO cells assessed as increase in thermal stability at 5 uM at 5 to 10 degreeC incubated for 24 hrs by CETSA; assay type: cell-based
[41] = target: Polycomb protein SUZ12 (Homo sapiens) (UniProt Q15022); experiment: Binding affinity to SUZ12 in human MINO cells assessed as increase in thermal stability at 5 uM at 5 to 10 degreeC incubated for 24 hrs by CETSA; assay type: cell-based
MINO [42] = experiment: Binding affinity to RbAp48 in human MINO cells assessed as increase in thermal stability at 5 uM at 5 to 10 degreeC incubated for 24 hrs by CETSA; assay type: cell-based
MINO [43] = experiment: PROTAC activity at EZH2/E3 ligase in human MINO cells assessed as reduction in EZH2 protein level incubated for 24 hrs by Western blotting assay; assay type: cell-based; conditions: dose 0.02-20 µM
MINO [44] = experiment: PROTAC activity at EZH2/E3 ligase in human MINO cells assessed as reduction in EZH2 protein level at 1 to 2.5 uM incubated for 24 hrs by Western blotting assay; assay type: cell-based; conditions: dose 1-2.5 µM
MINO [45] = experiment: PROTAC activity at EZH2/E3 ligase in human MINO cells assessed as reduction in EZH2 protein level at 5 uM incubated for 24 hrs by Western blotting assay; assay type: cell-based; design: scale not given: the % may be the effect or the level left
[46] = Potency index, ratio of tazemetostat IC50 to test compound IC50 for antiproliferative activity against human MINO cells; assay type: functional

Chain of Histone-lysine N-methyltransferase EZH2 (Homo sapiens) (Q15910 whole entry, looked up): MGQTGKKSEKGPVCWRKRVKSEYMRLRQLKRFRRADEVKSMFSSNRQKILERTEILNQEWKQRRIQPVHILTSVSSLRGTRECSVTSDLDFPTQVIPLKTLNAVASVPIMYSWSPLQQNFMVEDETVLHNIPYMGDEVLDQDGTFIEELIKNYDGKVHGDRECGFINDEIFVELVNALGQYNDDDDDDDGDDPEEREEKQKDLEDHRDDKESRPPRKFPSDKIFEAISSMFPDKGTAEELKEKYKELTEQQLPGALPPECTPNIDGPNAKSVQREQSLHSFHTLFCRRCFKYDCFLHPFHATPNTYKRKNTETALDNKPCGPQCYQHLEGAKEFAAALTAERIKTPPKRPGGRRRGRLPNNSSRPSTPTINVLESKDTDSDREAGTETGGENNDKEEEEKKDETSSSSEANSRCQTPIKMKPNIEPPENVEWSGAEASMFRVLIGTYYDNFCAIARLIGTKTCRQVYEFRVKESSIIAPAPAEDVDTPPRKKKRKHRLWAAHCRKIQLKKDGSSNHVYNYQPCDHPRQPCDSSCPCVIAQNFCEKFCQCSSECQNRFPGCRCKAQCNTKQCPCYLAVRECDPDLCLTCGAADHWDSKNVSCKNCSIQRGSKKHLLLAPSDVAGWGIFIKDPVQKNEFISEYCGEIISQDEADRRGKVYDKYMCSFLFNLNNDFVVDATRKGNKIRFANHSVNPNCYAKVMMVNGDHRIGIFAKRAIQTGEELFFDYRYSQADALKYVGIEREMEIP
Chain of Polycomb protein EED (Homo sapiens) (O75530 2-441 limits assumed): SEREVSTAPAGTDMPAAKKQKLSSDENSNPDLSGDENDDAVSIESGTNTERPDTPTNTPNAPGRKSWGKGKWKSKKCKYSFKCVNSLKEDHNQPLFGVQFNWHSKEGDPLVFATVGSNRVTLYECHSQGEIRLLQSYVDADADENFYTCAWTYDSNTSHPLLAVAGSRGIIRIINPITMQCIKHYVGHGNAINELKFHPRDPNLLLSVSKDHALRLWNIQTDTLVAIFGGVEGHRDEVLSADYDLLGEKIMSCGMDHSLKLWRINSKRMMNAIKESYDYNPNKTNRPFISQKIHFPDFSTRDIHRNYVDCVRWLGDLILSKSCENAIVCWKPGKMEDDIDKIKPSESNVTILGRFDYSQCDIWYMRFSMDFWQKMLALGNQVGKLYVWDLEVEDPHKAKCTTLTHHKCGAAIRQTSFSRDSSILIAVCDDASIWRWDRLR
Chain of Polycomb protein SUZ12 (Homo sapiens) (Q15022 whole entry): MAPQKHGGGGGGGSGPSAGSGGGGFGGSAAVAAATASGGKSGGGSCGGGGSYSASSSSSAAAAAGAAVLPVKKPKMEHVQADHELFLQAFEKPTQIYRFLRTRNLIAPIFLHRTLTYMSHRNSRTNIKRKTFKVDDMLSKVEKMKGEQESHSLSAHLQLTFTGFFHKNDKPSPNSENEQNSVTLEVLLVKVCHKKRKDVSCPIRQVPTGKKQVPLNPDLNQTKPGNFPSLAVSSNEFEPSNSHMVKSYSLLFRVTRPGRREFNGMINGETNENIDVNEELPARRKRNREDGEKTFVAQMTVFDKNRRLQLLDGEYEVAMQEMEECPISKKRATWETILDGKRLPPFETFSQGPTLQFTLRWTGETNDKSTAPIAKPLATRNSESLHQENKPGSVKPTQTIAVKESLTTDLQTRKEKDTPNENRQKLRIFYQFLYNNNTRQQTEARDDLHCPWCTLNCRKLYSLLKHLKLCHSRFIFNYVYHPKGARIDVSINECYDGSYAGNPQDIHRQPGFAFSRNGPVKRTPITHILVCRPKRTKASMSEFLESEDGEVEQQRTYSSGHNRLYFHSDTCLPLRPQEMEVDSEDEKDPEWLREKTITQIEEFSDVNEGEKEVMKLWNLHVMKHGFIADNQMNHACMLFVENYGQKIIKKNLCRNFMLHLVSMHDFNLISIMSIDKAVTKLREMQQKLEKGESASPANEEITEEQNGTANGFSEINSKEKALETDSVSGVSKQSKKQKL

CCN(c1cc(-c2ccc(CN3CCOCC3)cc2)cc(C(=O)NCc2c(C)cc(C)[nH]c2=O)c1C)C1CCOCC1 [TAZEMETOSTAT]
IC50 [1]: 1070 nM
IC50 (OCI-Ly7): 1190 nM
Activity (MINO [2]): inactive
Activity (MINO [3]): inactive
Activity (MINO [4]): inactive
Activity (MINO [5]): inactive
Activity (MINO [6]): Active; Limited Inhibition Observed
Activity [7]: 73.92%
Activity [8]: 7.74%
Activity [9]: 18.34%
viability at 5 µM [10]: 57.2%
Activity [11]: 0.38%
Activity [12]: 32.16%
Activity [13]: 10.27%
Activity (MINO [14]): Active; Activity Weaker Than Zj-20
Activity (MINO [15]): Active; Activity Weaker Than Zj-20
Activity (MINO [16]): Active; Activity Weaker Than Zj-20
Activity (MINO [17]): Active; Activity Weaker Than Zj-20
Activity (MINO [18]): Active; Activity Weaker Than Zj-20
Activity (MINO [19]): Active; Activity Weaker Than Zj-20

CCN(c1cc(-c2ccc(CN3CCN(C(=O)CC4CCC(CNc5cccc6c5C(=O)N(C5CCC(=O)NC5=O)C6=O)CC4)CC3)cc2)cc(C(=O)NCc2c(C)cc(C)[nH]c2=O)c1C)C1CCOCC1 (centres undefined)
IC50 [1]: 5 nM
IC50 (OCI-Ly7): 150 nM
half-life [20]: 1320 min
Tmax [21]: 25.2 min
Cmax [22]: 7210 ng/mL
AUC(0-t) [23]: 98400 ng·h/mL
AUC(0-inf) [24]: 190 µg·h/mL
MRT last [25]: 9.7 h
MRT inf [26]: 31.4 h
C0 [27]: 6500 ng/mL
Vd [28]: 0.323 L/kg
Vd [29]: 0.329 L/kg
clearance [30]: 0.191 mL/min/kg
bioavailability [31]: 6.05%
half-life [32]: 701 min
Tmax [33]: 49.8 min
Cmax [34]: 2980 ng/mL
AUC(0-t) [35]: 29700 ng·h/mL
AUC(0-inf) [36]: 40500 ng·h/mL
MRT last [37]: 8.87 h
MRT inf [38]: 17.6 h
Activity (MINO [2]): Active
Activity (MINO [3]): Active
Activity (MINO [4]): Active
Activity (MINO [5]): Active
Activity (MINO [6]): Active
Activity [39]: Active
Activity [40]: inactive
Activity [41]: inactive
Activity (MINO [42]): inactive
Activity (MINO [43]): Dose-dependent-effect
Activity (MINO [44]): Active; Significant And Potent Activity Observed
Activity (MINO [45]): 100%
Activity [7]: 79.47%
Activity [8]: 6.11%
Activity [9]: 14.41%
viability at 5 µM [10]: 35.6%
Activity [11]: 4.89%
Activity [12]: 57.55%
Activity [13]: 2%
Activity (MINO [14]): Active
Activity (MINO [15]): Active
Activity (MINO [16]): Active
Activity (MINO [17]): Active
Activity (MINO [18]): Active
Activity (MINO [19]): Active
Ratio IC50 [46]: 214

CCN(c1cc(-c2ccc(CN3CCN(C(=O)CN4CCN(c5cccc6c5C(=O)N(C5CCC(=O)NC5=O)C6=O)CC4)CC3)cc2)cc(C(=O)NCc2c(C)cc(C)[nH]c2=O)c1C)C1CCOCC1 (centres undefined)
IC50 [1]: 110 nM
IC50 (OCI-Ly7): 2350 nM

CCN(c1cc(-c2ccc(CN3CCN(C(=O)/C=C/C4CC(CNc5cccc6c5C(=O)N(C5CCC(=O)NC5=O)C6=O)C4)CC3)cc2)cc(C(=O)NCc2c(C)cc(C)[nH]c2=O)c1C)C1CCOCC1 (centres undefined)
IC50 [1]: 190 nM
IC50 (OCI-Ly7): 6 nM

CCN(c1cc(-c2ccc(CN3CCN(C(=O)CCC4CCC(CNc5cccc6c5C(=O)N(C5CCC(=O)NC5=O)C6=O)C4)CC3)cc2)cc(C(=O)NCc2c(C)cc(C)[nH]c2=O)c1C)C1CCOCC1 (centres undefined)
IC50 [1]: 30 nM
IC50 (OCI-Ly7): 20 nM

CCN(c1cc(-c2ccc(CN3CCN(C(=O)CCC4CC(CNc5cccc6c5C(=O)N(C5CCC(=O)NC5=O)C6=O)C4)CC3)cc2)cc(C(=O)NCc2c(C)cc(C)[nH]c2=O)c1C)C1CCOCC1 (centres undefined)
IC50 [1]: 48 nM
IC50 (OCI-Ly7): 10 nM

CCN(c1cc(-c2ccc(CN3CCN(C(=O)C4CCN(C5CCN(c6cccc7c6C(=O)N(C6CCC(=O)NC6=O)C7=O)CC5)CC4)CC3)cc2)cc(C(=O)NCc2c(C)cc(C)[nH]c2=O)c1C)C1CCOCC1 (centres undefined)
IC50 [1]: 980 nM
IC50 (OCI-Ly7): 4050 nM

CCN(c1cc(-c2ccc(CN3CCN(C(=O)/C=C/C4CCC(CNc5cccc6c5C(=O)N(C5CCC(=O)NC5=O)C6=O)C4)CC3)cc2)cc(C(=O)NCc2c(C)cc(C)[nH]c2=O)c1C)C1CCOCC1 (centres undefined)
IC50 [1]: 57 nM
IC50 (OCI-Ly7): 7 nM
